According to ChEMBL document CHEMBL4261621, “Synthesis of enamino-2-oxindoles via conjugate addition between α-azido ketones and 3-alkenyl oxindoles: Cytotoxicity evaluation and apoptosis inducing studies” (Bioorg Med Chem Lett, 2018):

Assays:
HCT-15 [1] = test: Cytotoxicity against human HCT15 cells at 30 uM after 48 hrs by MTT assay relative to control; type: functional
HCT-116 [2] = test: Cytotoxicity against human HCT116 cells at 30 uM after 48 hrs by MTT assay relative to control; type: functional
NCI-H460 [3] = test: Cytotoxicity against human NCI-H460 cells at 30 uM after 48 hrs by MTT assay relative to control; type: functional
A549 [4] = test: Cytotoxicity against human A549 cells at 30 uM after 48 hrs by MTT assay relative to control; type: functional
MDA-MB-231 [5] = test: Cytotoxicity against human MDA-MB-231 cells at 30 uM after 48 hrs by MTT assay relative to control; type: functional
HeLa [6] = test: Cytotoxicity against human HeLa cells at 30 uM after 48 hrs by MTT assay relative to control; type: functional
HCT-116 [7] = test: Cytotoxicity against human HCT116 cells after 72 hrs by MTT assay; type: functional, cell-based; conditions: HCT-116, 72 h
HCT-15 [8] = test: Cytotoxicity against human HCT15 cells after 72 hrs by MTT assay; type: functional, cell-based; conditions: HCT-15, 72 h
NCI-H460 [9] = test: Cytotoxicity against human NCI-H460 cells after 72 hrs by MTT assay; type: functional, cell-based; conditions: NCI-H460, 72 h
A549 [10] = test: Cytotoxicity against human A549 cells after 72 hrs by MTT assay; type: functional, cell-based; conditions: A549, 72 h
MDA-MB-231 [11] = test: Cytotoxicity against human MDA-MB-231 cells after 72 hrs by MTT assay; type: functional, cell-based; conditions: MDA-MB-231, 72 h
HeLa [12] = test: Cytotoxicity against human HeLa cells after 72 hrs by MTT assay; type: functional, cell-based

With COC(=O)/C(=C(\N)C(=O)c1ccccc1)C1C(=O)Nc2ccc(Br)cc21 (stereo unspecified) the Activity (HCT-15 [1]) was greater than 50%, the Activity (HCT-116 [2]) was greater than 50% and the Activity (NCI-H460 [3]) was greater than 50%. For the same compound, the Activity (A549 [4]) was greater than 50%, the Activity (MDA-MB-231 [5]) was greater than 50% and the Activity (HeLa [6]) was greater than 50%. The IC50 (HCT-116 [7]) was 25.9 µM, the IC50 (HCT-15 [8]) was 28.5 µM and the IC50 (NCI-H460 [9]) was 27.6 µM. It also gave an IC50 (A549 [10]) of 13 µM, an IC50 (MDA-MB-231 [11]) of 6.85 µM and an IC50 (HeLa [12]) of 12.2 µM.

Work on O=c1[nH]cc(F)c(=O)[nH]1 [FLUOROURACIL] yielded an IC50 (HCT-116 [7]) of 11.6 µM, an IC50 (HCT-15 [8]) of 11.9 µM and an IC50 (NCI-H460 [9]) of 11.8 µM. For the same compound, the IC50 (A549 [10]) was 4.3 µM, the IC50 (MDA-MB-231 [11]) was 21.1 µM and the IC50 (HeLa [12]) was 10.8 µM.

For COC(=O)/C(=C(\N)C(=O)c1ccccc1)C1C(=O)N(Cc2ccccc2)c2ccc(C)cc21 (stereo unspecified), the Activity (HCT-15 [1]) was greater than 50%, the Activity (HCT-116 [2]) was greater than 50% and the Activity (NCI-H460 [3]) was greater than 50%. The Activity (A549 [4]) was greater than 50%, the Activity (MDA-MB-231 [5]) was greater than 50% and the Activity (HeLa [6]) was greater than 50%. The IC50 (HCT-116 [7]) was 3.31 µM, the IC50 (HCT-15 [8]) was 2.67 µM and the IC50 (NCI-H460 [9]) was 1.51 µM. For the same compound, the IC50 (A549 [10]) was 6.6 µM, the IC50 (MDA-MB-231 [11]) was 13.9 µM and the IC50 (HeLa [12]) was 6.28 µM.

CCOC(=O)/C(=C(\N)C(=O)c1ccc(OC)cc1)C1C(=O)N(Cc2ccccc2)c2ccc(Cl)cc21 (stereo unspecified) showed an Activity (HCT-15 [1]) greater than 50%, an Activity (HCT-116 [2]) greater than 50% and an Activity (NCI-H460 [3]) greater than 50%. It also gave an Activity (A549 [4]) greater than 50%, an Activity (MDA-MB-231 [5]) greater than 50% and an Activity (HeLa [6]) greater than 50%. It also gave an IC50 (HCT-116 [7]) of 3.82 µM, an IC50 (HCT-15 [8]) of 3.15 µM and an IC50 (NCI-H460 [9]) of 3.32 µM. It also gave an IC50 (A549 [10]) of 3.25 µM, an IC50 (MDA-MB-231 [11]) of 6.96 µM and an IC50 (HeLa [12]) of 3.72 µM.

CCOC(=O)/C(=C(\N)C(=O)c1ccccc1)C1C(=O)N(Cc2ccc(Br)cc2)c2ccccc21 (stereo unspecified) gave an Activity (HCT-15 [1]) greater than 50%, an Activity (HCT-116 [2]) greater than 50% and an Activity (NCI-H460 [3]) greater than 50%. The Activity (A549 [4]) was greater than 50%, the Activity (MDA-MB-231 [5]) was greater than 50% and the Activity (HeLa [6]) was greater than 50%. The IC50 (HCT-116 [7]) was 3.26 µM, the IC50 (HCT-15 [8]) was 3.17 µM and the IC50 (NCI-H460 [9]) was 3.9 µM. The IC50 (A549 [10]) was 3.23 µM, the IC50 (MDA-MB-231 [11]) was 7.13 µM and the IC50 (HeLa [12]) was 7.28 µM.

Compound CCOC(=O)/C(=C(\N)C(=O)c1ccccc1)C1C(=O)N(Cc2ccccc2)c2ccc(Br)cc21 (stereo unspecified) has an Activity (HCT-15 [1]) greater than 50%, an Activity (HCT-116 [2]) greater than 50% and an Activity (NCI-H460 [3]) greater than 50%. For the same compound, the Activity (A549 [4]) was greater than 50%, the Activity (MDA-MB-231 [5]) was greater than 50% and the Activity (HeLa [6]) was greater than 50%. For the same compound, the IC50 (HCT-116 [7]) was 28.7 µM, the IC50 (HCT-15 [8]) was 26.1 µM and the IC50 (NCI-H460 [9]) was 18.5 µM. It also gave an IC50 (A549 [10]) of 27.7 µM, an IC50 (MDA-MB-231 [11]) of 28.2 µM and an IC50 (HeLa [12]) of 25.6 µM.
